In article PMC8129988 (Inorganic Chemistry Frontiers, 2021):

Assays:
[1] = tested on: BCR-ABL-driven K-562 xenografts; experiment: K-562 xenograft experiment; format: in vivo, C.B.17/SCID mice; conditions: 10 mg kg^-1 i.p., three times a week for two weeks
Description: (§1) Based on this promising in vitro data, the antitumor activity of our novel cobalt(III) complexes Co(acac)2LPon and Co(Meacac)2LPon was evaluated in xenograft mouse models. As a first in vivo experiment, BCR-ABL-driven K-562 cells were injected subcutaneously (s.c.) and treated intraperitoneally (i.p.) with the test compounds at 10 mg kg^−1 or the respective amount of solvent three times a week, for two weeks. Treatment with our novel derivatives was well tolerated and even after repeated i.p. applications no substantial body weight loss was observed (Fig. S13A ^†). […] Consequently, anticancer activity of Co(acac)2LPon was also investigated against FGFR3-driven UM-UC-14 xenografts using the identical treatment regime.
(§2) Fig. 11 In vivo anticancer activity of the investigated cobalt(III) complexes. […] Tumor sizes were evaluated by caliper measurement. […] Statistical significance was calculated by two-way ANOVA with Sidak multiple comparison test with p < 0.05(*); <0.01 (**).
(§3) Eight-to nine-week-old male C.B.17/SCID mice were bread in-house (originally Harlan) and were kept in pathogen-free conditions and controlled environment with 12 h light–dark cycle. […] Tumor growth was evaluated by daily recording of tumor size by caliper measurement. […]

[2] = tested on: UM-UC-14 cells; experiment: ligand release by UV fluorescence microscopy; format: cell-based, human; conditions: 10 μM, 24 h, UM-UC-14, fluorescence microscopy
Description: The enhanced stability of Co(acac)2LPon under normoxia and its hypoxia-induced ligand release was subsequently confirmed by fluorescence microscopy. Fluorescence intensities indicated a ∼2.8-fold decreased stability of the cobalt(III) complex under hypoxic vs. normoxic cell culture conditions.
UM-UC-14 cells were seeded (2.5 × 10^5 cells per well) in 12-well plates and after 24 h recovery treated with 10 μM of compounds. After 24 h incubation, the drug solutions were removed, cells were washed with PBS and microphotographs of the different treatments were taken using UV fluorescence microscopy (Nikon Eclipse Ti2 microscope with a DAPI filter and a high-pressure mercury lamp) and a 20× objective. The level of cellular fluorescence was determined from fluorescence microscopy images using ImageJ software.
Figure S9: Ligand release of Co(acac)2LPon under normoxic and hypoxic cell culture conditions in comparison to LPon using UV fluorescence microscopy. UM-UC-14 cells were incubated with 10 µM of compounds for 24 h. Images of the different treatments were taken by UV fluorescence microcopy (20X objective) and the corrected total cell fluorescence was evaluated using ImageJ software. Data in Figure S9B are given as means ± SD of ten analyzed microphotographs per compound. Statistical significance was calculated by unpaired t test with p < .05(*). […]

[3] = tested on: FGFR3-driven UM-UC-14 xenografts; experiment: UM-UC-14 xenograft experiment; format: in vivo, C.B.17/SCID mice; conditions: 10 mg kg^-1 i.p., three times a week for two weeks
Description: as §1, §2, §3

With `CC(=O)C=C(C)[O-].CC(=O)C=C(C)[O-].Cc1ccc(C(=O)Nc2ccc(CNCCN)c(C(F)(F)F)c2)cc1C#Cc1cnc2cccnn12.O=C(O)C(F)(F)F.[Co+3]` [Co(acac)2LPon, Bis(2,4-pentanedionato)N-(4-(((2-aminoethyl)amino)methyl)-3-(trifluoromethyl)phenyl)-3-(imidazo[1,2-b]pyridazin-3-ylethynyl)-4-methylbenzamide cobalt(III) 2,2,2-trifluoroacetate] the “tumor growth vs solvent controls” value [1] was “significantly reduced tumor growth”, the “fluorescence intensity change (decreased stability) hypoxic vs. normoxic” value [2] was about 2.8 fold and the body weight [3] was “without significant impact on body weight”. The “tumor volumes vs control” value [3] was “significant reduction of tumor volumes”.
